Data reported in patent US20190336489A1, “NON PEPTIDE HETEROBIVALENT MOLECULES FOR TREATING INFLAMMATORY DISEASES” (GLAXOSMITHKLINE INTELLECTUAL PROPERTY DEVELOPMENT LIMITED, priority 2017, published 2019).
Where two headings read alike, the source gives them in different places. Marks after values point to notes of the source that are not given here.

Biological target: T1, CCR2 (Homo sapiens, UniProt P41597)
T1 construct: expressed in transfected cells; host or cells: CHOK1
Assay: Antibody Dependent Cellular Cytotoxicity (ADCC) reporter assay, CCR2 target cells
Type: cell-based
Settings: for ADCC efficacy: maximum signal:background (S/B)
From the text: The compounds described herein have been characterized in an ADCC reporter assay (see Section 1.2 ADCC reporter for protocol). […] Furthermore, the assay also confirms that this formed complex can engage and activate the Fc receptors on immune cells. Lastly, the assay provides both potency (EC50) and efficacy (signal to background ratio) for each compound in a dose dependant manner.
This assay has four components • 1) Heterobivalent Compound consisting of a targeting ligand and a hapten connected by a linker (ranging from 10 uM-1 pM) • 2) A hapten antibody with functional Fc domain (typical concentrations are 0.01 ug/mL-200 ug/mL) • 3) Target cells—CHOK1 cells engineered to overexpress either CCR1, CCR2, or CCR3, or CEMNKR cells engineered to overexpress CCR5 (typically 1000-20,000 cells per well) • 4) Reporter cells—Jurkat cells engineered to express FcgRIIIa (ADCC reporter assay) and with a reporter gene (luciferase) under the control of the NFAT promoter (typically 3000-75,000 cells per well)
Reagents are combined in final volume of 20 uL in 384-well tissue culture treated plated.
All components are incubated together for ˜12-18 hours. Add BioGlo Detection reagent (from Promega) to lyse the cells and provide substrate for the luciferase reporter protein. Signal is measured on a microplate reader capable of measuring luminescence. Signal:Background is calculated by dividing the signal of a test well by the signal obtained when no compound is included in the assay. EC50 calculations were done using Graphpad Prism Software, specifically a nonlinear regression curve fit (Y=Bottom+(Top−Bottom)/(1+10^((Log EC50−X)*HillSlope)))

[1] = CHOK1 cells overexpressing CCR2, Jurkat FcgRIIIa NFAT-luciferase reporter cells, EC50 class
[2] = CHOK1 cells overexpressing CCR2
[3] = CHOK1 cells overexpressing CCR2, Jurkat FcgRIIIa NFAT-luciferase reporter cells, EC50 class, read-out: ADCC potency

T1 sequence (P41597 whole entry, species assumed): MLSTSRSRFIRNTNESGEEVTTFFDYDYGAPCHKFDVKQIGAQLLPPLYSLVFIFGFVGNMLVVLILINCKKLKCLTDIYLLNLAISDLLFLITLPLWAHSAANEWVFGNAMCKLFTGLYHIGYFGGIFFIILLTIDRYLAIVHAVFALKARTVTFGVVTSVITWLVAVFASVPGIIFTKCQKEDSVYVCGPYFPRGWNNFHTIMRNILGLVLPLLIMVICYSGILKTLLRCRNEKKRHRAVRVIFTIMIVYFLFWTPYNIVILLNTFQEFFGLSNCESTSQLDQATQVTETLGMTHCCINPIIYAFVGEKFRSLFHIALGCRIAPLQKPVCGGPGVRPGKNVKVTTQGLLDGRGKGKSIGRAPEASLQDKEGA

Structure (SMILES)	ADCC potency [1]	ADCC efficacy [2]	EC50 [3]	EC50
O=C(NCC(=O)N1CC[C@H](NC2CCC(O)(c3ccc(-c4ncccn4)cn3)CC2)C1)c1cc(OCCOCCOCCOCCOCCOCCOCCOCCOCCOCCNc2ccc([N+](=O)[O-])cc2[N+](=O)[O-])cc(C(F)(F)F)c1 (single isomer, unassigned) [Compound 17]	+++ (pEC50 ≥ 9 = +++)	+++^e (Maximum Signal:Background > 10 = +++)		
O=C(NCC(=O)N1CC[C@H](NC2CCC(O)(c3ccc(-c4ncccn4)cn3)CC2)C1)c1cc(OCCOCCOCCOCCOCCOCCOCCOCCOCCOCCNc2ccc([N+](=O)[O-])cc2[N+](=O)[O-])cc(C(F)(F)F)c1 (single isomer, unassigned) [Compound 16]	+++ (pEC50 ≥ 9 = +++)	++^e (>5 = ++)		
CC(C)[C@]1(C(=O)N2CCc3nc(CCCCOc4cccc(C(=O)NCCOCCOCCOCCOCCOCCOCCOCCOCCOCCNc5ccc([N+](=O)[O-])cc5[N+](=O)[O-])c4)c(C(F)(F)F)cc3C2)CC[C@@H](NC2CCOCC2)C1 [Compound 7, N-(29-((2,4-dinitrophenyl)amino)-3,6,9,12,15,18,21,24,27-nonaoxanonacosyl)-3-(4-(6-((1S,3R)-1-isopropyl-3-((tetrahydro-2H-pyran-4-yl)amino)cyclopentanecarbonyl)-3-(trifluoromethyl)-5,6,7,8-tetrahydro-1,6-naphthyridin-2-yl)butoxy)benzamide]		+++^e (Maximum Signal:Background > 10 = +++)	< 1 nM	
Cc1ccc2c(c1)NC[C@]21CCN(C[C@@H](O)C2CCN(C(=O)c3cc4ccc(OCCOCCOCCOCCNC(=O)CCC(=O)NCCOCCOCCOCCNc5ccc([N+](=O)[O-])cc5[N+](=O)[O-])cc4[nH]3)CC2)C[C@H]1C [Compound 13, N1-(2-(2-(2-(2-((2-(4-((S)-2-((3S,3′S)-3′,6-Dimethylspiro[indoline-3,4′-piperidin]-1′-yl)-1-hydroxyethyl)piperidine-1-carbonyl)-1H-indol-6-yl)oxy)ethoxy)ethoxy)ethoxy)ethyl)-N4-(2-(2-(2-(2-((2,4-dinitrophenyl)amino)ethoxy)ethoxy)ethoxy)ethyl)succinamide]		+++^e (Maximum Signal:Background > 10 = +++)		1 to 10 nM
Cc1ccc2c(c1)NC[C@]21CCN(C[C@@H](O)C2CCN(C(=O)c3cc4cc(Oc5ccc(C(=O)NCCOCCOCCOCCOCCOCCOCCOCCOCCOCCNc6ccc([N+](=O)[O-])cc6[N+](=O)[O-])cc5)ccc4[nH]3)CC2)C[C@H]1C [Compound 10, 4-((2-(4-((S)-2-((3S,3′S)-3′,6-Dimethylspiro[indoline-3,4′-piperidin]-1′-yl)-1-hydroxyethyl)piperidine-1-carbonyl)-1H-indol-5-yl)oxy)-N-(29-((2,4-dinitrophenyl)amino)-3,6,9,12,15,18,21,24,27-nonaoxanonacosyl)benzamide]		+++^e (Maximum Signal:Background > 10 = +++)	1 to 10 nM	
CC(C)(C)N1CCNC(C(=O)N2CCN(C(=O)Nc3ccc(Cl)c(F)c3)C(CCOC(=O)NCCOCCOCCOCCOCCOCCOCCOCCOCCOCCNc3ccc([N+](=O)[O-])cc3[N+](=O)[O-])C2)C1 (single isomer, unassigned) [Compound 19, 2-(4-(4-(Tert-butyl)piperazine-2-carbonyl)-1-((4-chloro-3-fluorophenyl)carbamoyl)piperazin-2-yl)ethyl (29-((2,4-dinitrophenyl)amino)-3,6,9,12,15,18,21,24,27-nonaoxanonacosyl)carbamate]		+++^e (Maximum Signal:Background > 10 = +++)	< 1 nM	
Cc1ccc2c(c1)NC[C@]21CCN(C[C@@H](O)C2CCN(C(=O)/C=C/c3cc(F)cc(OCCOCCOCCOCCOCCOCCOCCOCCOCCOCCNc4ccc([N+](=O)[O-])cc4[N+](=O)[O-])c3)CC2)C[C@H]1C [Compound 9, (E)-1-(4-((S)-2-((3S,3′S)-3′,6-Dimethylspiro[indoline-3,4′-piperidin]-1′-yl)-1-hydroxyethyl)piperidin-1-yl)-3-(3-((29-((2,4-dinitrophenyl)amino)-3,6,9,12,15,18,21,24,27-nonaoxanonacosyl)oxy)-5-fluorophenyl)prop-2-en-1-one]		+++^e (Maximum Signal:Background > 10 = +++)	< 1 nM	
Cc1ccc2c(c1)NC[C@]21CCN(C[C@@H](O)C2CCN(C(=O)c3cc4ccc(Oc5ccc(C(=O)NCCOCCOCCOCCOCCOCCOCCOCCOCCOCCNc6ccc([N+](=O)[O-])cc6[N+](=O)[O-])cc5)cc4[nH]3)CC2)C[C@H]1C [Compound 12, 4-((2-(4-((S)-2-((3S,3′S)-3′,6-Dimethylspiro[indoline-3,4′-piperidin]-1′-yl)-1-hydroxyethyl)piperidine-1-carbonyl)-1H-indol-6-yl)oxy)-N-(29-((2,4-dinitrophenyl)amino)-3,6,9,12,15,18,21,24,27-nonaoxanonacosyl)benzamide]		+++^e (Maximum Signal:Background > 10 = +++)	< 1 nM	
CC(C)[C@]1(C(=O)N2CCc3nc(CCCCOc4ccc(C(=O)NCCOCCOCCOCCOCCOCCOCCOCCOCCOCCNc5ccc([N+](=O)[O-])cc5[N+](=O)[O-])cc4)c(C(F)(F)F)cc3C2)CC[C@@H](NC2CCOCC2)C1 [Compound 6, N-(29-((2,4-dinitrophenyl)amino)-3,6,9,12,15,18,21,24,27-nonaoxanonacosyl)-4-(4-(6-((1S,3R)-1-isopropyl-3-((tetrahydro-2H-pyran-4-yl)amino)cyclopentanecarbonyl)-3-(trifluoromethyl)-5,6,7,8-tetrahydro-1,6-naphthyridin-2-yl)butoxy)benzamide]		+++^e (Maximum Signal:Background > 10 = +++)	< 1 nM	
Cc1ccc2c(c1)NC[C@]21CCN(C[C@@H](O)C2CCN(C(=O)c3cc4c(OCCOCCOCCOCCNC(=O)CCC(=O)NCCOCCOCCOCCNc5ccc([N+](=O)[O-])cc5[N+](=O)[O-])cccc4[nH]3)CC2)C[C@H]1C [Compound 14, N1-(2-(2-(2-(2-((2-(4-((S)-2-((3S,3′S)-3′,6-dimethylspiro[indoline-3,4′-piperidin]-1′-yl)-1-hydroxyethyl)piperidine-1-carbonyl)-1H-indol-4-yl)oxy)ethoxy)ethoxy)ethoxy)ethyl)-N4-(2-(2-(2-(2-((2,4-dinitrophenyl)amino)ethoxy)ethoxy)ethoxy)ethyl)succinamide]		++^e (>5 = ++)		100 to 1000 nM
Cc1ccc2c(c1)NC[C@]21CCN(C[C@@H](O)C2CCN(C(=O)c3cc4ccc(Oc5ccc(C(=O)N6CCN(CCCNc7ccc([N+](=O)[O-])cc7[N+](=O)[O-])CC6)cc5)cc4[nH]3)CC2)C[C@H]1C [Compound 15, (4-((S)-2-((3S,3′S)-3′,6-Dimethylspiro[indoline-3,4′-piperidin]-1′-yl)-1-hydroxyethyl)piperidin-1-yl)(6-(4-(4-(3-((2,4-dinitrophenyl)amino)propyl)piperazine-1-carbonyl)phenoxy)-1H-indol-2-yl)methanone]		+++^e (Maximum Signal:Background > 10 = +++)	1 to 10 nM	
Cc1ccc2c(c1)NC[C@]21CCN(C[C@@H](O)C2CCN(C(=O)c3cc4cc(OCCOCCOCCOCCNC(=O)CCC(=O)NCCOCCOCCOCCNc5ccc([N+](=O)[O-])cc5[N+](=O)[O-])ccc4[nH]3)CC2)C[C@H]1C [Compound 8, N1-(2-(2-(2-(2-((2-(4-((S)-2-((3S,3′S)-3′,6-Dimethylspiro[indoline-3,4′-piperidin]-1′-yl)-1-hydroxyethyl)piperidine-1-carbonyl)-1H-indol-5-yl)oxy)ethoxy)ethoxy)ethoxy)ethyl)-N4-(2-(2-(2-(2-((2,4-dinitrophenyl)amino)ethoxy)ethoxy)ethoxy)ethyl)succinamide]		+++^e (Maximum Signal:Background > 10 = +++)	10 to 100 nM	
Cc1ccc2c(c1)NC[C@]21CCN(C[C@@H](O)C2CCN(c3ncc(-c4cccc(C(=O)NCCOCCOCCOCCOCCOCCOCCOCCOCCOCCNc5ccc([N+](=O)[O-])cc5[N+](=O)[O-])c4)o3)CC2)C[C@H]1C [Compound 11, 3-(2-(4-((S)-2-((3S,3′S)-3′,6-Dimethylspiro[indoline-3,4′-piperidin]-1′-yl)-1-hydroxyethyl)piperidin-1-yl)oxazol-5-yl)-N-(29-((2,4-dinitrophenyl)amino)-3,6,9,12,15,18,21,24,27-nonaoxanonacosyl)benzamide]		+++^e (Maximum Signal:Background > 10 = +++)	10 to 100 nM	
